Structures can show the parent of a compound that is named as a salt.
Key:
PPARα = molecular target: T1, PPARα (Homo sapiens, UniProt Q07869); test: Crossover-curve PPAR transactivation test (PPARα); type: cell-based; details: HeLN cells stably transfected with ERE-βGlob-Luc-SV-Neo and Gal-hPPARα; Schild regression against reference agonist; n.a. means not active; read-out: PPARα Kd app
T1 sequence (Q07869 200-468 limits assumed): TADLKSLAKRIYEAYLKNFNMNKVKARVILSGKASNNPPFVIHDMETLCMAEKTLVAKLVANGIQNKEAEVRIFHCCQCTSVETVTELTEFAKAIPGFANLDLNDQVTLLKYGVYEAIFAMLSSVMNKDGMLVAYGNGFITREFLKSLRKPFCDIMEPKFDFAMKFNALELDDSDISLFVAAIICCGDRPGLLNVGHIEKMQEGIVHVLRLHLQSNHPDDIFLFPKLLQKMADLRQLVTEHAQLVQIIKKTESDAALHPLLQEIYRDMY
Experimental: (§1) The activation of PPAR receptors with an agonist (activator) in HeLN cells leads to the expression of a reporter gene, luciferase, which, in the presence of a substrate, generates light. The modulation of the PPAR receptors is measured by quantifying the luminescence produced after incubating the cells in the presence of a reference agonist. The ligands displace the agonist from its site. The measurement of the activity is performed by quantifying the light produced. This measurement makes it possible to determine the modulatory activity of the compounds according to the invention by determining the constant that represents the affinity of the molecule for the PPAR receptor. Since this value can fluctuate depending on the basal activity and the expression of the receptor, it is referred to as Kd apparent (KdApp in nM).
(§2) To determine this constant, “crossover curves” of the test product against a reference agonist are performed in a 96-well plate: 10 concentrations of the test product plus a concentration 0 are arranged in a line, and 7 concentrations of the agonist plus a concentration 0 are arranged in a column. This represents 88 measurement points for 1 product and 1 receptor. The remaining 8 wells are used for repeatability controls.
(§3) Measurements are also taken for total agonist controls with the same products.
(§4) The HeLN cell lines used are stable transfectants containing the plasmids ERE-βGlob-Luc-SV-Neo (reporter gene) and PPAR (α, δ, γ) Gal-hPPAR. These cells are inoculated into 96-well plates at a rate of 10 000 cells per well in 100 μl of DMEM medium without phenol red and supplemented with 10% of defatted calf serum. The plates are then incubated at 37° C. and 7% CO2 for 16 hours.
(§5) The various dilutions of the test products and of the reference ligand are added at a rate of 5 μl per well. The plates are then incubated for 18 hours at 37° C. and 7% CO2. The culture medium is removed by turning over and 100 μl of a 1:1 PBS/luciferine mixture are added to each well. After 5 minutes, the plates are read by the luminescence detector.

PPARγ = molecular target: T2, PPARγ (Homo sapiens, UniProt P37231); test: Crossover-curve PPAR transactivation test (PPARγ); type: cell-based; details: HeLN cells stably transfected with ERE-βGlob-Luc-SV-Neo and Gal-hPPARγ; Schild regression against reference agonist; n.a. means not active; read-out: PPARγ Kd app
T2 sequence (P37231 238-505 limits assumed): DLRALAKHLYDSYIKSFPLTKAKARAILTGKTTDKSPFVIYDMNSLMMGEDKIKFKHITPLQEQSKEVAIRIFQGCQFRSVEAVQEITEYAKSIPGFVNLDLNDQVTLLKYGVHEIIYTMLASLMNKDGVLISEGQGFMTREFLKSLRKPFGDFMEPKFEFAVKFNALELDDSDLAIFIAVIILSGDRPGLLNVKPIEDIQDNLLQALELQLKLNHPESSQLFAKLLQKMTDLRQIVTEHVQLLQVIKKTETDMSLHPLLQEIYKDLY
Experimental: as §1, §2, §3, §4, §5

Row | Kd (PPARα) [nM] | Kd (PPARγ) [nM] | Compound
1 | 4000 | 0.06 | CCCCCCCC(=O)N(C)Cc1cc(-c2ccc(C[C@H](OCC)C(=O)O)cc2)cs1 [Example 5, 2(S)-Ethoxy-3-(4-{5-[(methyloctanoylamino)methyl]thiophen-3-yl}phenyl)propanoic acid]
2 | 1000 | 2 | CCCCCCCC(=O)N(C)Cc1ccc(-c2ccc(C[C@H](OCC)C(=O)O)cc2)s1 [Example 6, 2(S)-Ethoxy-3-(4-{5-[(methyloctanoylamino)methyl]thiophen-2-yl}phenyl)propanoic acid]
3 | 2000 | 60 | CCCCCCCNC(=O)N(C)c1ncc(-c2ccc(C[C@H](OCC)C(=O)O)cc2)s1 [Example 7, 2(S)-Ethoxy-3-{4-[2-(3-heptyl-1-methylureido)thiazol-5-yl]phenyl}propanoic acid]
4 |  | 30 | CCCCCNC(=O)N(C)c1ncc(-c2ccc(C[C@H](OCC)C(=O)O)cc2)s1 [Example 8, 2(S)-Ethoxy-3-{4-[2-(1-methyl-3-pentylureido)thiazol-5-yl]phenyl}propanoic acid]
5 | 120 | 0.5 | CCCCCCCNC(=O)N(C)c1cccc(-c2ccc(C[C@H](OCC)C(=O)O)cc2)n1 [Example 10, 2(S)-Ethoxy-3-{4-[6-(3-heptyl-1-methylureido)pyrid-2-yl]phenyl}propanoic acid hydrochloride]
6 | 2000 | 1000 | CCCCCC(=O)N(C)Cc1cc(-c2ccc(C[C@H](Nc3ccccc3C(=O)c3ccccc3)C(=O)O)cc2)cs1 [Example 15, 2(S)-(2-Benzoylphenylamino)-3-(4-{5-[(hexanoylmethylamino)methyl]thiophen-3-yl}phenyl)propanoic acid]
7 |  | 4 | CCCCCCCNC(=O)N(C)c1cccc(-c2ccc(CC(OCC)C(=O)O)cn2)c1 (stereo not shown) [Example 20, 2-Ethoxy-3-{6-[3-(3-heptyl-1-methylureido)phenyl]pyrid-3-yl}propanoic acid]
8 |  | 500 | N-{3-[5-(2,4-dioxothiazolidin-5-ylmethyl)pyrid-2-yl]benzyl}-N-methyloctanoylamide [Example 4]
